Data from patent US20230085307A1, “PYRIDAZINONE COMPOUND AND HERBICIDE” (NISSAN CHEMICAL CORPORATION, priority 2019, published 2023).

What was measured:
blackgrass [1] = experiment: Test Example 5: herbicidal effect by foliage application, plastic box (Table 20, symbol J); format: in vivo, blackgrass (Alopecurus myosuroides); conditions: amount of applied herbicide 320 g/ha; foliage application after 14-day growth; evaluated three weeks after application
How it was run: (§1)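 Foliar spray test: emulsion formulation diluted in water to a set application rate, sprayed onto 14-day-old plants raised in diluvial soil at 25° C to 30° C under glass. Both herbicidal effect and crop effect rated visually three weeks later.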

velvetleaf [2] = experiment: Test Example 4: herbicidal effect by soil treatment (Table 19, symbol M); format: in vivo, velvetleaf (Abutilon theophrasti); conditions: amount of applied herbicide 320 g/ha
How it was run: (§2)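 Step 1: sow seeds in sterilized diluvial soil, cover ~1.5 cm. Step 2: spray diluted emulsion onto soil surface at predetermined rate. Step 3: greenhouse, 25–30° C, three weeks. Step 4: grade effect on each plant by earlier criteria.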

barnyard grass [3] = experiment: Test Example 5: herbicidal effect by foliage application, plastic box (Table 20, symbol H); format: in vivo, barnyard grass (Echinochloa crus-galli); conditions: amount of applied herbicide 320 g/ha; foliage application after 14-day growth; evaluated three weeks after application
How it was run: as §1

late watergrass = experiment: Test Example 1: herbicidal activity, application before weed generation under submerged conditions (Table 16, symbol A); format: in vivo, late watergrass (Echinochloa oryzicola); conditions: amount of applied herbicide 320 g/ha
How it was run: (§3)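 Submerged Wagner pots (alluvial soil, 4 cm water) sown with weed seeds and planted with 2.5-leaf rice seedlings; emulsifiable concentrate diluted in water applied to water surface on sowing day. Held in greenhouse at 25-30 °C; injury scored 0-5 by herbicidal rate after three weeks.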

lambsquarters [4] = experiment: Test Example 4: herbicidal effect by soil treatment (Table 19, symbol O); format: in vivo, lambsquarters (Chenopodium album); conditions: amount of applied herbicide 320 g/ha
How it was run: as §2

persian speedwell [5] = experiment: Test Example 4: herbicidal effect by soil treatment (Table 19, symbol R); format: in vivo, Persian speedwell (Veronica persica); conditions: amount of applied herbicide 320 g/ha
How it was run: as §2

rice flat sedge = experiment: Test Example 3: herbicidal effect by foliage application, Wagner pot (Table 18, symbol E); format: in vivo, rice flat sedge (Cyperus iria); conditions: 320 g/ha
How it was run: (§4)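 Plants were sown in alluvial soil held under 0.1–0.5 cm standing water and grown 14 days in a greenhouse at 25–30 °C. An emulsifiable formulation, water-diluted to the set dose, was then sprayed onto the foliage, and effects were scored three weeks later using previously defined criteria.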

Italian ryegrass [6] = experiment: Test Example 5: herbicidal effect by foliage application, plastic box (Table 20, symbol K); format: in vivo, Italian ryegrass (Lolium multiflorum); conditions: amount of applied herbicide 320 g/ha; foliage application after 14-day growth; evaluated three weeks after application
How it was run: as §1

persian speedwell [7] = experiment: Test Example 5: herbicidal effect by foliage application, plastic box (Table 20, symbol R); format: in vivo, Persian speedwell (Veronica persica); conditions: amount of applied herbicide 320 g/ha; foliage application after 14-day growth; evaluated three weeks after application
How it was run: as §1

Japanese bulrush = experiment: Test Example 1: herbicidal activity, application before weed generation under submerged conditions (Table 16, symbol B); format: in vivo, Japanese bulrush (Schoenoplectus juncoides); conditions: amount of applied herbicide 320 g/ha
How it was run: as §3

green foxtail [8] = experiment: Test Example 4: herbicidal effect by soil treatment (Table 19, symbol G); format: in vivo, green foxtail (Setaria viridis); conditions: amount of applied herbicide 320 g/ha
How it was run: as §2

redroot pigweed [9] = experiment: Test Example 5: herbicidal effect by foliage application, plastic box (Table 20, symbol N); format: in vivo, redroot pigweed (Amaranthus retroflexus); conditions: amount of applied herbicide 320 g/ha; foliage application after 14-day growth; evaluated three weeks after application
How it was run: as §1

southern crabgrass [10] = experiment: Test Example 4: herbicidal effect by soil treatment (Table 19, symbol F); format: in vivo, southern crabgrass (Digitaria ciliaris); conditions: amount of applied herbicide 320 g/ha
How it was run: as §2

green foxtail [11] = experiment: Test Example 5: herbicidal effect by foliage application, plastic box (Table 20, symbol G); format: in vivo, green foxtail (Setaria viridis); conditions: amount of applied herbicide 320 g/ha; foliage application after 14-day growth; evaluated three weeks after application
How it was run: as §1

Italian ryegrass [12] = experiment: Test Example 4: herbicidal effect by soil treatment (Table 19, symbol K); format: in vivo, Italian ryegrass (Lolium multiflorum); conditions: amount of applied herbicide 320 g/ha
How it was run: as §2

lambsquarters [13] = experiment: Test Example 5: herbicidal effect by foliage application, plastic box (Table 20, symbol O); format: in vivo, lambsquarters (Chenopodium album); conditions: amount of applied herbicide 320 g/ha; foliage application after 14-day growth; evaluated three weeks after application
How it was run: as §1

chickweed [14] = experiment: Test Example 5: herbicidal effect by foliage application, plastic box (Table 20, symbol P); format: in vivo, common chickweed (Stellaria media); conditions: amount of applied herbicide 320 g/ha; foliage application after 14-day growth; evaluated three weeks after application
How it was run: as §1

velvetleaf [15] = experiment: Test Example 5: herbicidal effect by foliage application, plastic box (Table 20, symbol M); format: in vivo, velvetleaf (Abutilon theophrasti); conditions: amount of applied herbicide 320 g/ha; foliage application after 14-day growth; evaluated three weeks after application
How it was run: as §1

barnyard grass [16] = experiment: Test Example 4: herbicidal effect by soil treatment (Table 19, symbol H); format: in vivo, barnyard grass (Echinochloa crus-galli); conditions: amount of applied herbicide 320 g/ha
How it was run: as §2

redroot pigweed [17] = experiment: Test Example 4: herbicidal effect by soil treatment (Table 19, symbol N); format: in vivo, redroot pigweed (Amaranthus retroflexus); conditions: amount of applied herbicide 320 g/ha
How it was run: as §2

southern crabgrass [18] = experiment: Test Example 5: herbicidal effect by foliage application, plastic box (Table 20, symbol F); format: in vivo, southern crabgrass (Digitaria ciliaris); conditions: amount of applied herbicide 320 g/ha; foliage application after 14-day growth; evaluated three weeks after application
How it was run: as §1

chickweed [19] = experiment: Test Example 4: herbicidal effect by soil treatment (Table 19, symbol P); format: in vivo, common chickweed (Stellaria media); conditions: amount of applied herbicide 320 g/ha
How it was run: as §2

windgrass [20] = experiment: Test Example 5: herbicidal effect by foliage application, plastic box (Table 20, symbol L); format: in vivo, windgrass (Apera spica-venti); conditions: amount of applied herbicide 320 g/ha; foliage application after 14-day growth; evaluated three weeks after application
How it was run: as §1

windgrass [21] = experiment: Test Example 4: herbicidal effect by soil treatment (Table 19, symbol L); format: in vivo, windgrass (Apera spica-venti); conditions: amount of applied herbicide 320 g/ha
How it was run: as §2

barnyard grass [22] = experiment: Test Example 3: herbicidal effect by foliage application, Wagner pot (Table 18, symbol H); format: in vivo, barnyard grass (Echinochloa crus-galli); conditions: 320 g/ha
How it was run: as §4

wild oat [23] = experiment: Test Example 4: herbicidal effect by soil treatment (Table 19, symbol I); format: in vivo, wild oat (Avena fatua); conditions: amount of applied herbicide 320 g/ha
How it was run: as §2

oval-leafed pondweed = experiment: Test Example 1: herbicidal activity, application before weed generation under submerged conditions (Table 16, symbol C); format: in vivo, oval-leafed pondweed (Monochoria vaginalis); conditions: amount of applied herbicide 320 g/ha
How it was run: as §3

Chinese sprangletop = experiment: Test Example 3: herbicidal effect by foliage application, Wagner pot (Table 18, symbol D); format: in vivo, chinese sprangletop (Leptochloa chinensis); conditions: 320 g/ha
How it was run: as §4

blackgrass [24] = experiment: Test Example 4: herbicidal effect by soil treatment (Table 19, symbol J); format: in vivo, blackgrass (Alopecurus myosuroides); conditions: amount of applied herbicide 320 g/ha
How it was run: as §2

wild oat [25] = experiment: Test Example 5: herbicidal effect by foliage application, plastic box (Table 20, symbol I); format: in vivo, wild oat (Avena fatua); conditions: amount of applied herbicide 320 g/ha; foliage application after 14-day growth; evaluated three weeks after application
How it was run: as §1

CCOc1ccccc1-c1sc2cc(F)c(F)cc2c1-c1c(O)c(C)nn(C)c1=O [5-016]
Herbicidal effect by foliage application, J: blackgrass (blackgrass [1]): 4 (Herbicidal rate of 70% or more and less than 90%) | M: velvetleaf, herbicidal effect grade (velvetleaf [2]): 4 (Herbicidal rate of 70% or more and less than 90%) | Herbicidal effect by foliage application, H: barnyard grass (barnyard grass [3]): 5 (Herbicidal rate of 90% or more (almost completely withered)) | Herbicidal effect, A: late watergrass (late watergrass): 3 (Herbicidal rate of 40% or more and less than 70%) | O: lambsquarters, herbicidal effect grade (lambsquarters [4]): 5 (Herbicidal rate of 90% or more (almost completely withered)) | R: persian speedwell, herbicidal effect grade (persian speedwell [5]): 5 (Herbicidal rate of 90% or more (almost completely withered)) | herbicidal effect on rice flat sedge (E) (rice flat sedge): 5 (Herbicidal rate of 90% or more (almost completely withered)) | Herbicidal effect by foliage application, K: Italian ryegrass (Italian ryegrass [6]): 3 (Herbicidal rate of 40% or more and less than 70%) | Herbicidal effect by foliage application, R: persian speedwell (persian speedwell [7]): 5 (Herbicidal rate of 90% or more (almost completely withered)) | Herbicidal effect, B: Japanese bulrush (Japanese bulrush): 1 (Herbicidal rate of 5% or more and less than 20%) | G: green foxtail, herbicidal effect grade (green foxtail [8]): 5 (Herbicidal rate of 90% or more (almost completely withered)) | Herbicidal effect by foliage application, N: redroot pigweed (redroot pigweed [9]): 5 (Herbicidal rate of 90% or more (almost completely withered)) | F: southern crabgrass, herbicidal effect grade (southern crabgrass [10]): 4 (Herbicidal rate of 70% or more and less than 90%) | Herbicidal effect by foliage application, G: green foxtail (green foxtail [11]): 5 (Herbicidal rate of 90% or more (almost completely withered)) | K: Italian ryegrass, herbicidal effect grade (Italian ryegrass [12]): 3 (Herbicidal rate of 40% or more and less than 70%) | Herbicidal effect by foliage application, O: lambsquarters (lambsquarters [13]): 4 (Herbicidal rate of 70% or more and less than 90%) | Herbicidal effect by foliage application, P: chickweed (chickweed [14]): 5 (Herbicidal rate of 90% or more (almost completely withered)) | Herbicidal effect by foliage application, M: velvetleaf (velvetleaf [15]): 5 (Herbicidal rate of 90% or more (almost completely withered)) | H: barnyard grass, herbicidal effect grade (barnyard grass [16]): 5 (Herbicidal rate of 90% or more (almost completely withered)) | N: redroot pigweed, herbicidal effect grade (redroot pigweed [17]): 5 (Herbicidal rate of 90% or more (almost completely withered)) | Herbicidal effect by foliage application, F: southern crabgrass (southern crabgrass [18]): 4 (Herbicidal rate of 70% or more and less than 90%) | P: chickweed, herbicidal effect grade (chickweed [19]): 5 (Herbicidal rate of 90% or more (almost completely withered)) | Herbicidal effect by foliage application, L: windgrass (windgrass [20]): 5 (Herbicidal rate of 90% or more (almost completely withered)) | L: windgrass, herbicidal effect grade (windgrass [21]): 5 (Herbicidal rate of 90% or more (almost completely withered)) | herbicidal effect on barnyard grass (H) (barnyard grass [22]): 5 (Herbicidal rate of 90% or more (almost completely withered)) | I: wild oat, herbicidal effect grade (wild oat [23]): 0 (Herbicidal rate of 5% or less (almost no effect)) | Herbicidal effect, C: oval-leafed pondweed (oval-leafed pondweed): 0 (Herbicidal rate of 5% or less (almost no effect)) | herbicidal effect on Chinese sprangletop (D) (Chinese sprangletop): 2 (Herbicidal rate of 20% or more and less than 40%) | J: blackgrass, herbicidal effect grade (blackgrass [24]): 4 (Herbicidal rate of 70% or more and less than 90%) | Herbicidal effect by foliage application, I: wild oat (wild oat [25]): 0 (Herbicidal rate of 5% or less (almost no effect))
